Source: ChEMBL document CHEMBL3872247, “Discovery of dual positive allosteric modulators (PAMs) of the metabotropic glutamate 2 receptor and CysLT1 antagonists for treating migraine headache” (Bioorg Med Chem Lett, 2017)

Experiments:
Cytochrome P450 2C9 = Cytochrome P450 2C9 (Homo sapiens, UniProt P11712); experiment: Inhibition of CYP2C9 (unknown origin); format: ADME
[1] = Half life in rat at 1 mg/kg, iv; format: ADME, organism-based; conditions: in vivo
[2] = target: Metabotropic glutamate receptor 8 (Homo sapiens) (UniProt O00222); experiment: Agonist activity at recombinant human mGlu8 expressed in hamster AV12 cells expressing EAAT1 assessed as increase in intracellular Ca2+ level at 30 uM after 24 hrs by FLIPR assay; format: functional, cell-based
[3] = target: 5-hydroxytryptamine receptor 4 (Homo sapiens, UniProt Q13639); experiment: Displacement of human recombinant 5HT4E receptor expressed in CHO cells after 60 mins by scintillation counting method; format: cell-based
[4] = Oral bioavailability in rat at 1 mg/kg; format: ADME, organism-based; conditions: in vivo
[5] = Half life in rat at 1 mg/kg, po; format: ADME, organism-based; conditions: in vivo
[6] = Volume of distribution in rat at 1 mg/kg, iv; format: ADME, organism-based; conditions: in vivo
Rattus norvegicus [7] = organism: Rattus norvegicus; experiment: Displacement of [3H]flunitrazepam from Central-type benzodiazepine receptor in rat cerebral cortex at 10 uM measured after 60 mins by scintillation counting method
[8] = target: Histamine H2 receptor (Homo sapiens) (UniProt P25021); experiment: Displacement of [125I]APT from recombinant human histamine H2 receptor expressed in HEK293 cells at 10 uM measured after 120 mins by scintillation counting method; format: cell-based
[9] = target: T1, Metabotropic glutamate receptor 3 (Homo sapiens, UniProt Q14832); experiment: Agonist activity at recombinant human mGlu3 expressed in hamster AV12 cells expressing EAAT1 assessed as increase in intracellular calcium level measured after 24 hrs by FLIPR assay; format: functional, cell-based
[10] = target: T2, Metabotropic glutamate receptor 2 (Homo sapiens, UniProt Q14416); experiment: Agonist activity at recombinant human mGlu2 receptor expressed in hamster AV12 cells expressing EAAT1 assessed as increase in intracellular calcium level measured after 24 to 48 hrs by FLIPR assay; format: functional, cell-based
Cytochrome P450 2D6 = Cytochrome P450 2D6 (Homo sapiens, UniProt P10635); experiment: Inhibition of CYP2D6 (unknown origin); format: ADME
[11] = target: Muscarinic acetylcholine receptor (Rattus norvegicus) (UniProt P08482+P08483+P08485+P08911+P10980); experiment: Displacement of [3H]QNB from non-selective muscarinic receptor in rat cerebral cortex at 10 uM measured after 120 mins by scintillation counting method
[12] = Cmax in dog at 0.5 mg/kg, iv; format: ADME, organism-based, Canis lupus familiaris; set-up: dose 0.5 mg/kg, route intravenous; conditions: in vivo
[13] = target: T2, Metabotropic glutamate receptor 2; experiment: Antagonist activity at recombinant human mGlu2 receptor expressed in hamster AV12 cells expressing EAAT1 assessed as inhibition of glutamate-induced increase in intracellular Ca2+ level measured after 24 to 48 hrs by FLIPR assay; format: functional, cell-based
Cytochrome P450 3A4 = Cytochrome P450 3A4 (Homo sapiens, UniProt P08684); experiment: Inhibition of CYP3A4 (unknown origin); format: ADME
[14] = target: D(1A) dopamine receptor (Homo sapiens) (UniProt P21728); experiment: Displacement of [3H]SCH23390 from recombinant human dopamine D1 receptor expressed in CHO cells at 10 uM measured after 60 mins by scintillation counting method; format: cell-based
Rattus norvegicus [15] = experiment: Decrease in plasma protein extravasation in fasted Harlan Sprague-Dawley rat model of migraine compound administered via oral gavage 1 hr prior to electrical stimulation of trigeminal ganglion measured after 15 mins by FITC-BSA based fluorescence assay; format: functional
[16] = target: Adrenergic receptor alpha-1 (Rattus norvegicus) (UniProt P15823+P23944+P43140); experiment: Displacement of [3H]prazosin from non-selective alpha1 adrenergic receptor in rat brain cortex at 10 uM measured after 60 mins by scintillation counting method; format: tissue-based
[17] = Volume of distribution in dog at 0.5 mg/kg, iv; format: ADME, organism-based, Canis lupus familiaris; conditions: in vivo
hERG (KCNH2) = hERG (KCNH2) (Homo sapiens, UniProt Q12809); experiment: Displacement of [3H]dofetilide from recombinant human ERG expressed in HEK293 cells measured after 60 mins by scintillation counting method; format: cell-based; conditions: HEK293 cells expressing recombinant human ERG, probe [3H]dofetilide
[18] = target: T2, Metabotropic glutamate receptor 2; experiment: Positive allosteric modulation of recombinant human mGlu2 receptor expressed in hamster AV12 cells expressing EAAT1 assessed as potentiation of glutamate-induced intracellular calcium level measured after 24 to 48 hrs by FLIPR assay; format: functional, cell-based
[19] = target: Adenosine receptor A1 (Homo sapiens) (UniProt P30542); experiment: Displacement of [3H]DPCPX from human adenosine A1 receptor at 10 uM measured after 60 mins by scintillation counting method
[20] = Ratio of Cmax in rat to EC50 for human mGlu2 receptor expressed in hamster AV12 cells expressing EAAT1
[21] = target: T1, Metabotropic glutamate receptor 3; experiment: Antagonist activity at recombinant human mGlu3 receptor expressed in hamster AV12 cells expressing EAAT1 assessed as inhibition of glutamate-induced intracellular Ca2+ level measured after 24 hrs by FLIPR assay; format: functional, cell-based
[22] = target: 5-hydroxytryptamine receptor 2B (Homo sapiens, UniProt P41595); experiment: Activity at human 5T2B receptor
[23] = Cmax in rat at 1 mg/kg, po; format: ADME, organism-based; set-up: dose 1 mg/kg, route oral; conditions: in vivo

T2 sequence (Q14416 whole entry): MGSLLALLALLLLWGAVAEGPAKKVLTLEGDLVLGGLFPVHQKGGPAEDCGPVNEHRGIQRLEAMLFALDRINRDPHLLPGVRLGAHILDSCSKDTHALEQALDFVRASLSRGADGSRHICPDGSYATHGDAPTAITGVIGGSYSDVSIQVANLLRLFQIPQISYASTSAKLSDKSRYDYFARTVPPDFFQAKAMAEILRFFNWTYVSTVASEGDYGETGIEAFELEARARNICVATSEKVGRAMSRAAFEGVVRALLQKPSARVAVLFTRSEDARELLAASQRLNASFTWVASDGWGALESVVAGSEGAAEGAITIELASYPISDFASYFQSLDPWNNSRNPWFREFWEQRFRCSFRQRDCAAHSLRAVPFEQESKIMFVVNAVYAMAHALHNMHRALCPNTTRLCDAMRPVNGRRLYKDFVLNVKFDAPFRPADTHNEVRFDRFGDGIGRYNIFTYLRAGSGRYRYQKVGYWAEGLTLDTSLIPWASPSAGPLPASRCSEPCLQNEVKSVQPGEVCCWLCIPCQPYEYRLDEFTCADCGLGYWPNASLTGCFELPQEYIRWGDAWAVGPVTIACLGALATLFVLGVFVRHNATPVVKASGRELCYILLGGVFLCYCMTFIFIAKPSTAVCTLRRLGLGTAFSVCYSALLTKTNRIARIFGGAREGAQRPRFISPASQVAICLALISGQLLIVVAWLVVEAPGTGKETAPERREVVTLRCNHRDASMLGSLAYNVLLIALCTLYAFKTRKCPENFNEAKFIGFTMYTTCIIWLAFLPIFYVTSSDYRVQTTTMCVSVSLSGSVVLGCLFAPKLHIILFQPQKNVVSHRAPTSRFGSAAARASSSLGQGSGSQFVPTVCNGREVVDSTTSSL
T1 sequence (Q14832 whole entry): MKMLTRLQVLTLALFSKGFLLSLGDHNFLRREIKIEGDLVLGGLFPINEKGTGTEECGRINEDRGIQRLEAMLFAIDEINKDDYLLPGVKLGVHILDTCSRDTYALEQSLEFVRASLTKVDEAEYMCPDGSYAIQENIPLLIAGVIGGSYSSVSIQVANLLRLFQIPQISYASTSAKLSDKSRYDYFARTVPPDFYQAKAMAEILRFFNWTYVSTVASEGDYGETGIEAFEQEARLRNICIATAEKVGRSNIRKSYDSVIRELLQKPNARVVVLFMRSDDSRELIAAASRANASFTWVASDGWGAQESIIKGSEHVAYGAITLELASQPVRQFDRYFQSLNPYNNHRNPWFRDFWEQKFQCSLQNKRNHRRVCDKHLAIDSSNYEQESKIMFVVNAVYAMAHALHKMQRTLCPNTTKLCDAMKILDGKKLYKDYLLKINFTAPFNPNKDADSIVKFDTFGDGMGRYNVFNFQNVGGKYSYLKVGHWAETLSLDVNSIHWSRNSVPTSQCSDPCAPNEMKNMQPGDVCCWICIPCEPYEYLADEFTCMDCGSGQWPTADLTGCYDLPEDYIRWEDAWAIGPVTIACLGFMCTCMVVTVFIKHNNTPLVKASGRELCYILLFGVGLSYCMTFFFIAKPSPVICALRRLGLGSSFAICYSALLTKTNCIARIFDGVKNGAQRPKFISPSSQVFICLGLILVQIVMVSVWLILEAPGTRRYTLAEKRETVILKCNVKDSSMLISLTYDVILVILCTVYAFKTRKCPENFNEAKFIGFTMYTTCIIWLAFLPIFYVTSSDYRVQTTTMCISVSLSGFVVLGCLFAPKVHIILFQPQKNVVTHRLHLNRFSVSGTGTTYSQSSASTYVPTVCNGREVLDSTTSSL
Sequence of 5-hydroxytryptamine receptor 2B (P41595 whole entry): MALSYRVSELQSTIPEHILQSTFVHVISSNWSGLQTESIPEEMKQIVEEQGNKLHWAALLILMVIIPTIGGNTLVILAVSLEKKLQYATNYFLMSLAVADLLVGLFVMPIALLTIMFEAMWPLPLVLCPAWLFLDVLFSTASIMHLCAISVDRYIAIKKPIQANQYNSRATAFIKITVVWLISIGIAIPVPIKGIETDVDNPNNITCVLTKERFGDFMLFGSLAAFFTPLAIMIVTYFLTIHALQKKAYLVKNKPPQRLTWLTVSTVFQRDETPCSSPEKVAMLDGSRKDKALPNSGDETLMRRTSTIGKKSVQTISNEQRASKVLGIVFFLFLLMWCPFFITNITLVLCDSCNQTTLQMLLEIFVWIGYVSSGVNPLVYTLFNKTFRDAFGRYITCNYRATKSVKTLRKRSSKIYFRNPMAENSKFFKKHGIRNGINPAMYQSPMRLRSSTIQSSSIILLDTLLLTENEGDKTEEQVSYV
Sequence of hERG (KCNH2) (Q12809 whole entry): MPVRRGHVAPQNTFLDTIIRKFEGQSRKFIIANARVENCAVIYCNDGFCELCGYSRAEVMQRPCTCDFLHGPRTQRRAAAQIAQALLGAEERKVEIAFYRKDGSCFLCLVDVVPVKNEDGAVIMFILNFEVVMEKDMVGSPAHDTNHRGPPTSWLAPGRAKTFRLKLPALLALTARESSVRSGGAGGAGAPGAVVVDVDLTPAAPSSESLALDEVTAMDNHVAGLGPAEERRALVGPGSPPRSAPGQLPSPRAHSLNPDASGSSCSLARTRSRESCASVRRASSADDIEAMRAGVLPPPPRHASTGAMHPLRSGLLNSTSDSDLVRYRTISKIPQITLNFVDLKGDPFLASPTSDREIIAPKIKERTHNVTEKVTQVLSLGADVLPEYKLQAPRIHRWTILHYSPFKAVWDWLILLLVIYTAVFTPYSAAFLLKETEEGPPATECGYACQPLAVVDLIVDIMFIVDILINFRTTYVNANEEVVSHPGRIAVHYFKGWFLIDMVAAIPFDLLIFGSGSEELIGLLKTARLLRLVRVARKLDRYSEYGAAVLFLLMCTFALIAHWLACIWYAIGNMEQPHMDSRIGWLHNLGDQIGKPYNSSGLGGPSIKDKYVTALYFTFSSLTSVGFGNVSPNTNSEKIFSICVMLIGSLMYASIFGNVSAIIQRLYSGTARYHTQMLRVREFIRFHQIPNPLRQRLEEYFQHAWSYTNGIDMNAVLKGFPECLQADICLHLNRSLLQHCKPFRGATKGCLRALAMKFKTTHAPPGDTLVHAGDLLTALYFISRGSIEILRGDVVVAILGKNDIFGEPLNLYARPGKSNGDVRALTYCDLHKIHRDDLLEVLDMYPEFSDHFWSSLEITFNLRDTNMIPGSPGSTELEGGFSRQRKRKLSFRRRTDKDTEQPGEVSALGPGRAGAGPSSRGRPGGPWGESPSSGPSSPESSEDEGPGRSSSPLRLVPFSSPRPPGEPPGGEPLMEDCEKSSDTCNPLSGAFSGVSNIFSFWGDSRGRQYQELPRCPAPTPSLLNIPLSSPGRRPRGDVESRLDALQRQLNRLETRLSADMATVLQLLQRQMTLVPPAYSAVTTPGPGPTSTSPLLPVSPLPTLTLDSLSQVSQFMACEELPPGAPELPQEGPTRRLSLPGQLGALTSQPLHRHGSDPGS
Sequence of Adenosine receptor A1 (Homo sapiens) (P30542 whole entry): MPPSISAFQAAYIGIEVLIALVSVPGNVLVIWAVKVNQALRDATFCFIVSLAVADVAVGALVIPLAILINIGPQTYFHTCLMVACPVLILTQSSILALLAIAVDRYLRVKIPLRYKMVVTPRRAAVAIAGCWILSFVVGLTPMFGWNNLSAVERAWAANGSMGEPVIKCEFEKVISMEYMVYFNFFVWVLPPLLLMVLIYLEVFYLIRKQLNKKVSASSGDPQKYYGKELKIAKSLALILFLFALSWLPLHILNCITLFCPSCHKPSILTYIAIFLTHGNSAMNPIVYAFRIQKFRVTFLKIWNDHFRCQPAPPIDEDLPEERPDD
Sequence of Cytochrome P450 2D6 (P10635 whole entry): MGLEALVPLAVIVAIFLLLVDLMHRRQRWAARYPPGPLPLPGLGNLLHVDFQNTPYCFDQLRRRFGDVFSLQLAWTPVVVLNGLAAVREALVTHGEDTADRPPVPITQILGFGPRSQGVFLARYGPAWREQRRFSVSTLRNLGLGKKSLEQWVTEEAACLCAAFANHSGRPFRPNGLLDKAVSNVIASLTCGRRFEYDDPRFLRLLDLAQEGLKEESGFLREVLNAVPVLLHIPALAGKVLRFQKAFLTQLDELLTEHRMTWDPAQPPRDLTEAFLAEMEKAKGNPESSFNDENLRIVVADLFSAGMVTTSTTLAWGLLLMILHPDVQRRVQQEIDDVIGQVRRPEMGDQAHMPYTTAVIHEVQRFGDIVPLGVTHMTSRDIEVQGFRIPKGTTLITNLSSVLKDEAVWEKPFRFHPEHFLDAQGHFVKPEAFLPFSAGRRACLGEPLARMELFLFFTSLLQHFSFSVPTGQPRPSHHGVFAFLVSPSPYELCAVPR
Sequence of 5-hydroxytryptamine receptor 4 (Q13639 whole entry): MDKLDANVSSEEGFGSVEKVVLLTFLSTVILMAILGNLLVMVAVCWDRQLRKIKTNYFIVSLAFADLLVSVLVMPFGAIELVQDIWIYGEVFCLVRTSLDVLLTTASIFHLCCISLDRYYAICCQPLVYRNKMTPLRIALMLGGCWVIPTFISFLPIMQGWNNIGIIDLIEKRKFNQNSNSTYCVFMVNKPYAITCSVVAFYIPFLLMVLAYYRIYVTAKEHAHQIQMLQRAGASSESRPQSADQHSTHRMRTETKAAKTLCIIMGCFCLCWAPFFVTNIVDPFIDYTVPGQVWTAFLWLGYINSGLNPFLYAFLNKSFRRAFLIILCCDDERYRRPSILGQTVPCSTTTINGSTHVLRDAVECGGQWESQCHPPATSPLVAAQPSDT
Sequence of Histamine H2 receptor (Homo sapiens) (P25021 whole entry): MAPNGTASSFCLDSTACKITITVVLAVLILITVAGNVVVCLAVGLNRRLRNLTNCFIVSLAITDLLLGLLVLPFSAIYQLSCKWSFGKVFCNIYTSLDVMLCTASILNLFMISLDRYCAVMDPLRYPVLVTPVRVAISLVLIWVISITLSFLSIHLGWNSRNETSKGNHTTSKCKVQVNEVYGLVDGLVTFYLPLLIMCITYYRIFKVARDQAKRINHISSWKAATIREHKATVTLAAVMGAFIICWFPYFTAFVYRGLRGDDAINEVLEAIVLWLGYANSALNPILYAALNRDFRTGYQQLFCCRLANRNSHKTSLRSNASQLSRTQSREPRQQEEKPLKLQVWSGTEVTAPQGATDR

- INH (Cytochrome P450 2C9): > 40 µM
- half-life [1]: 2 h
- Activity [2]: < 20%
- Ki [3]: > 6.31 µM
- bioavailability [4]: 39%
- half-life [5]: 8 h
- Vd [6]: 2 L/kg
- inhibition (Rattus norvegicus [7]): 5.2%
- inhibition [8]: 10.2%
- EC50 [9]: > 25 µM
- EC50 [10]: > 25 µM
- INH (Cytochrome P450 2D6): > 40 µM
- inhibition [11]: 22.9%
- Cmax [12]: 2540 ng/mL
- IC50 [13]: > 12.5 µM
- INH (Cytochrome P450 3A4): > 40 µM
- inhibition [14]: 6.4%
- inhibition [16]: 5.3%
- Vd [17]: 2 L/kg
- EC50 [18]: 0.201 to 0.287 µM
- inhibition [19]: -4.5%
- IC50 [21]: > 12.5 µM
- Ki [22]: > 3.3 µM
- Cmax [23]: 78 ng/mL
SMILES: CC(=O)c1ccc(OCc2ccc(Oc3cc(-c4nn[nH]n4)ccn3)cc2)c(C)c1O
- Activity (Rattus norvegicus [15]): Dose-dependent effect
- ID100 (Rattus norvegicus [15]): 1 µg/kg
- inhibition at 1 h (hERG (KCNH2)): < 15%
- Ratio [20]: 0.65
